# Test results reported in PubChem BioAssay AID330 (DTP/NCI, 2004).
# Values joined by “and” are separate entries in the source; they are usually repeats but may differ in a detail not shown here. Equal entries are not always repeated. Toxic doses and inconclusive results are not listed.
# Test system: P388 leukemia ip, CD2F1 mice, survival T/C
# Assay: NCI In Vivo Anticancer Drug Screen. Data for tumor model P388 Leukemia (intraperitoneal) in CD2F1 (CDF1) mice
# Details: endpoint: median survival time, higher = longer survival
# Summary of the method: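 Mice carrying the transplanted tumor received test compound or vehicle. Survival was recorded in each group, and the value is the treated-group measurement divided by that of the vehicle-treated control group.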
# [1] = dose: 50.0 mg/kg/injection, schedule: Q01DX009 (ip), vehicle: saline
# [2] = dose: 50.0 mg/kg/injection, schedule: Q01DX005 (ip), vehicle: Klucel (hydroxypropylcellulose) (HPC)
# [3] = dose: 100.0 mg/kg/injection, schedule: Q01DX005 (ip), vehicle: Klucel (hydroxypropylcellulose) (HPC)
smiles,measurement,setting,value
COc1cc2c(c(OC)c1OC)-c1cc3c(cc1[C@@H](OC(C)=O)[C@@H]1COC(=O)[C@H]1C2)OCO3,T/C,"dose: 1.25 mg/kg/injection, schedule: Q01DX009 (ip), vehicle: Klucel (hydroxypropylcellulose) (HPC)",100 % of control
same,T/C,"dose: 2.5 mg/kg/injection, schedule: Q01DX009 (ip), vehicle: Klucel (hydroxypropylcellulose) (HPC)",111 % of control
same,T/C,"dose: 5.0 mg/kg/injection, schedule: Q01DX009 (ip), vehicle: Klucel (hydroxypropylcellulose) (HPC)",95 % of control
same,T/C,"dose: 10.0 mg/kg/injection, schedule: Q01DX009 (ip), vehicle: Klucel (hydroxypropylcellulose) (HPC)",97 % of control
CCNC(=O)OCCN(CCOC(=O)NCC)CCc1ccccc1,T/C,"dose: 60.0 mg/kg/injection, schedule: Q01DX005 (ip), vehicle: saline",110 % of control
same,T/C,"dose: 120.0 mg/kg/injection, schedule: Q01DX005 (ip), vehicle: saline",117 % of control
same,T/C,"dose: 240.0 mg/kg/injection, schedule: Q01DX005 (ip), vehicle: saline",99 % of control
CNC(=O)Nc1ccncc1,T/C,"dose: 12.5 mg/kg/injection, schedule: Q01DX009 (ip), vehicle: saline",112 % of control
same,T/C,"dose: 25.0 mg/kg/injection, schedule: Q01DX009 (ip), vehicle: saline",102 % of control
same,T/C,[1],100 % of control
Cc1ccc(S(=O)(=O)/N=[Se](\C)c2ccccc2)cc1 (centres undefined),T/C,"dose: 0.79 mg/kg/injection, schedule: Q01DX009 (ip), vehicle: saline",95 % of control
same,T/C,"dose: 1.56 mg/kg/injection, schedule: Q01DX009 (ip), vehicle: saline",97 % of control
same,T/C,"dose: 3.12 mg/kg/injection, schedule: Q01DX009 (ip), vehicle: saline",93 % of control and 97 % of control
same,T/C,"dose: 12.5 mg/kg/injection, schedule: Q01DX009 (ip), vehicle: saline with Tween-80",96 % of control
same,T/C,"dose: 25.0 mg/kg/injection, schedule: Q01DX009 (ip), vehicle: saline with Tween-80",96 % of control
same,T/C,"dose: 50.0 mg/kg/injection, schedule: Q01DX009 (ip), vehicle: saline with Tween-80",108 % of control
same,T/C,[1],114 % of control
C=C1C(=O)O[C@@H]2[C@H](O)[C@@H](C)[C@@H]3C=CC(=O)[C@@]3(C)[C@@H](OC(=O)/C(C)=C/C)[C@H]12,T/C,"dose: 1.5 mg/kg/injection, schedule: Q01DX009 (ip), vehicle: saline + alcohol",107 % of control
same,T/C,"dose: 6.0 mg/kg/injection, schedule: Q01DX009 (ip), vehicle: saline + alcohol",118 % of control
same,T/C,"dose: 6.75 mg/kg/injection, schedule: Q01DX009 (ip), vehicle: saline + alcohol",158 % of control
same,T/C,"dose: 8.75 mg/kg/injection, schedule: Q01DX009 (ip), vehicle: saline + alcohol",120 % of control
same,T/C,"dose: 12.0 mg/kg/injection, schedule: Q01DX009 (ip), vehicle: saline + alcohol",116 % of control
same,T/C,"dose: 12.5 mg/kg/injection, schedule: Q01DX009 (ip), vehicle: saline + alcohol",164 % of control
CCC(=O)c1cc2ccccc2c2ccccc12,T/C,"dose: 12.5 mg/kg/injection, schedule: Q01DX005 (ip), vehicle: saline",96 % of control
same,T/C,"dose: 25.0 mg/kg/injection, schedule: Q01DX005 (ip), vehicle: saline",100 % of control
same,T/C,"dose: 50.0 mg/kg/injection, schedule: Q01DX005 (ip), vehicle: saline with Tween-80",103 % of control
same,T/C,"dose: 50.0 mg/kg/injection, schedule: Q01DX005 (ip), vehicle: saline",100 % of control
CC(=O)Nc1ccc(S(=O)(=O)n2c(=O)oc3cc(Br)ccc32)cc1,T/C,"dose: 25.0 mg/kg/injection, schedule: Q01DX005 (ip), vehicle: Klucel (hydroxypropylcellulose) (HPC)",94 % of control
same,T/C,[2],87 % of control and 90 % of control
same,T/C,[3],87 % of control and 90 % of control
O=C1c2ccccc2C(=O)c2cnccc21,T/C,[2],109 % of control
same,T/C,[3],106 % of control
same,T/C,"dose: 200.0 mg/kg/injection, schedule: Q01DX005 (ip), vehicle: Klucel (hydroxypropylcellulose) (HPC)",106 % of control
O=C1C=C2C(=CCOC2O)O1 (centres undefined),T/C,"dose: 0.3 mg/kg/injection, schedule: Q01DX009 (ip), vehicle: saline with Tween-80",106 % of control
same,T/C,"dose: 0.3 mg/kg/injection, schedule: Q04DX003 (ip), vehicle: saline with Tween-80",106 % of control
same,T/C,"dose: 1.0 mg/kg/injection, schedule: Q04DX003 (ip), vehicle: saline with Tween-80",114 % of control
same,T/C,"dose: 2.0 mg/kg/injection, schedule: Q01DX009 (ip), vehicle: Klucel (hydroxypropylcellulose) (HPC)",117 % of control and 123 % of control
same,T/C,"dose: 4.0 mg/kg/injection, schedule: Q01DX009 (ip), vehicle: Klucel (hydroxypropylcellulose) (HPC)",106 % of control and 123 % of control
same,T/C,"dose: 10.0 mg/kg/injection, schedule: Q04DX003 (ip), vehicle: saline with Tween-80",113 % of control
